In patent publication US20230174484A1, “ANTAGONISTS OF GPR39 PROTEIN” (Oregon Health & Science University, priority 2020, published 2023) one finds fpKi activity and Ki data, which are given here for 24 molecules.

pKi: −log10 of the molar value. Structures can show the parent of a compound that is named as a salt. A value given as a limit tells only on which side of the number the result lay.

In the first assay the target is T1, human GPR39 receptor (Homo sapiens, UniProt O43194).
T1 construct: PC3 Cells, Expressing the Endogenous Human GPR39 Receptor; endogenous in cells; host or cells: PC3 (human prostate adenocarcinoma) cells
T1 sequence (O43194 1-453): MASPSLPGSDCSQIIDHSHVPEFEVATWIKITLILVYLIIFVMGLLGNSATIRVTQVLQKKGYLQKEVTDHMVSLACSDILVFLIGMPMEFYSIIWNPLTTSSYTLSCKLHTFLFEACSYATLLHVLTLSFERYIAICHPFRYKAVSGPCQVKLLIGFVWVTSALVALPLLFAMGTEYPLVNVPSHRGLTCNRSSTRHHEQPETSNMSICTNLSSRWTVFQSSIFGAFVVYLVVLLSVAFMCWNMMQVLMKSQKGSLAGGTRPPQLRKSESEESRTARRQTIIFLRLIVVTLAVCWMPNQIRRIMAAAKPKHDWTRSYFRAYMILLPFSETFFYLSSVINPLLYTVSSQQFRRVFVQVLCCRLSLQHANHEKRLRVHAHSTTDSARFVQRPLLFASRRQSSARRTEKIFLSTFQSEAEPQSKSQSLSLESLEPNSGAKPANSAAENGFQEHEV
The experiment in a line: Measurement of intracellular calcium response in PC3 cells (FLIPR), antagonism of the C3 agonist response. The class given is cell-based. Particulars: functional pKi (modified Cheng-Prusoff), inhibition of the C3 (TC-G 1008) response at EC90, 30 μM ZnCl2. As for the experimental part: Human prostate adenocarcinoma (PC3) cells endogenously expressing human GPR39 receptor were seeded into black walls clear-base 384-well plates at a density of 7,500 cells per well in DM EM (Low Glucose) supplemented with 10% heat-inactivated foetal bovine serum and 1% of Pen/Strep and grown overnight at 37° C., 5% CO2. After washing with assay buffer (20 mM HEPES, 137 mM NaCI, 5.4 mM KCI, 10 mM glucose, 0.8 mM MgSO4, 1.3 mM CaCl2, 0.3 mM Na2HPO4, 0.4 mM KH2PO4 4.2 mM NaHCO3, pH 7.4), cells were incubated with Calcium-6 probe (Molecular Devices) at 37° C. for 2h and then equilibrated at RT for 30 minutes on metal block. The fluorescence was measured in real time by Fluorometric Imaging Plate Reader (FLIPR TETRA, Molecular Devices) (excitation wavelength at 470-495 nm, emission wavelength at 515-575 nm).
Compounds of invention were serially diluted in neat DMSO at 1000 fold concentrations and plated into 384-well plates and then 200-fold diluted in assay buffer containing 150 uM ZnCl2 (30 μM final concentration) and […].
Fluorescence was monitored throughout the run assay. The peak of Ca2+stimulation (baseline subtracted) was expressed as percentage of the maximal inhibition of the EC90 C3 response and was plotted versus the concentration of test compound. Curve fitting and IC50 estimations are carried out using a four-parameter logistic model using XLfit Software.
The potency of compounds was reported as functional pKi (—Log10Ki) obtained using the modified Cheng-Prusoff relationship (Cheng, Y., Prusoff, W. H. 1973.)
fKi =IC50/(1+[L]/EC50) where IC50 is the concentration of antagonist required for 50% inhibition of the maximum response, [L] is the concentration of the agonist used (EC90) and EC50 is the concentration of agonist need to induced 50% of the maximum response (obtained in each experimental plate).
An fpKi less than 5.2 is reported as “+/±”. An fpKi ranging from 5.2 to 5.9 is reported as “+”. An fpKi from 6.0 to 6.5 is reported as “++”. An fpKi from 6.6 to 7.2 is reported as “+++”. An fpKi equal to or greater than 7.3 is reported as “++++”.
As to “(2R or 2S) N-[6-(3,3-difluoropyrrolidin-1-yl)-5-(4-methyl-2-phenylpiperazine-1-carbonyl)pyridin-2-yl]cyclopropanecarboxamide [Example 148b]”, the fpKi activity result is given as “+ (An fpKi ranging from 5.2 to 5.9 is reported as “+”)”.

The assay is the same for the next values; noted with them: functional pKi (modified Cheng-Prusoff), inhibition of the C3 (TC-G 1008) response at EC90, 30 μM ZnCl2, read-out: fpKi activity.
For `Cc1nnc(-c2ccc(C(=O)N3CCN(C)CC3c3ccccc3)c(N3CCC(C(F)(F)F)C3)c2)[nH]1` (single isomer, unassigned) [Example 177c, (2S, 3R) or (2R, 3S) or (2R, 3R) or (2S, 3S) (4-methyl-2-phenylpiperazin-1-yl)-[4-(5-methyl-4H-1,2,4-triazol-3-yl)-2-[3-(trifluoromethyl)pyrrolidin-1-yl]phenyl]methanone], the pKi was no less than 7.30.

As for `CN1CCN(C(=O)c2ccc(NC(=O)C3CC3)cc2N2CCCCCC2)C(c2ccsc2)C1` (single isomer, unassigned) [Example 70a, N-(3-(azepan-1-yl)-4-(4-methyl-2-(thiophen-3-yl)piperazine-1-carbonyl)phenyl)cyclopropane carboxamide], the pKi is 5.20 to 5.90.

For the molecule `CN1CCN(C(=O)c2ccc(NC(=O)C3CC3)cc2N2CCCC2)C(c2ccccc2Cl)C1` (single isomer, unassigned) [Example 170a, (2R or 2S) N-[4-[2-(2-chlorophenyl)-4-methylpiperazine-1-carbonyl]-3-pyrrolidin-1-ylphenyl] cyclopropanecarboxamide], the pKi is no less than 7.30.

As to `CN1CCN(C(=O)c2ccc(NC(=O)C3CC3)cc2N2CCCCCC2)C(c2cccs2)C1` (racemic) [Example 69c, N-(3-(azepan-1-yl)-4-(4-methyl-2-(thiophen-2-yl)piperazine-1-carbonyl)phenyl) cyclopropane carboxamide], the pKi is no less than 7.30.

As to `CC1CC(C)CN(c2cc(NC(=O)C3CC3)ccc2C(=O)N2CCN(C)CC2c2ccccc2)C1` (single isomer, unassigned) [Example 68d, Anti N-[3-[3,5-dimethylpiperidin-1-yl]-4-(4-methyl-2-phenylpiperazine-1-carbonyl)phenyl]cyclopropanecarboxamide], the pKi was 6.60 to 7.20.

On to `CN1CCN(C(=O)c2ccc(NC(=O)C3CC3)cc2N2CCC(C(F)(F)F)C2)C(c2ccccc2)C1` (single isomer, unassigned) [Example 199a, (2S, 3R) or (2R, 3S) or (2R, 3R) or (2S, 3S) N-[4-(4-methyl-2-phenylpiperazine-1-carbonyl)-3-[3-(trifluoromethyl)pyrrolidin-1-yl]phenyl]cyclopropanecarboxamide], for which the pKi is no less than 7.30.

Consider `CN1CCN(C(=O)c2ccc(NC(=O)C3CC3)cc2N2CCCCCC2)CC1` [Example 49, N-(3-(azepan-1-yl)-4-(4-methylpiperazine-1-carbonyl)phenyl)cyclopropanecarboxamide], for which the pKi was 6.60 to 7.20.

Turning to `CCCN1CCN(C(=O)c2ccc(NC(=O)C3CC3)cc2N2CCCC3(COC3)C2)CC1` [Example 6, N-(4-(4-propylpiperazine-1-carbonyl)-3-(2-oxa-6-azaspiro[3.5]nonan-6-yl)phenyl)cyclopropane carboxamide], the pKi is 5.20 to 5.90.

Take `O=C(Nc1ccc(C(=O)N2CCS(=O)(=O)CC2)c(N2CCC3(CCC3)C2)n1)C1CC1` [Example 143, N-[6-(6-azaspiro[3.4]octan-6-yl)-5-(1,1-dioxo-1,4-thiazinane-4-carbonyl)pyridin-2-yl]cyclopropanecarboxamide]: the pKi is no less than 7.30.

Regarding `O=C(Nc1ccc(C(=O)N2CCC(F)(F)CC2)c(N2CCCC2)c1)C1CC1` [Example 59, N-[4-(4,4-difluoropiperidine-1-carbonyl)-3-pyrrolidin-1-ylphenyl]cyclopropanecarboxamide], the pKi is 6.60 to 7.20.

As to `O=C(Nc1ccc(C(=O)N2CCC(C(F)(F)F)CC2)c(N2CCCC2)n1)C1CC1` [Example 107, N-[6-pyrrolidin-1-yl-5-[4-(trifluoromethyl)piperidine-1-carbonyl]pyridin-2-yl]Cyclopropanecarboxamide], the pKi is no less than 7.30.

Turning to `CCCN1CCN(C(=O)c2ccc(NC(=O)C3CC3)cc2NC2CCCC2)CC1` [Example 20, N-[3-(cyclopentylamino)-4-(4-propylpiperazine-1-carbonyl)phenyl]cyclopropanecarboxamide], the pKi was 6.00 to 6.50.

Take `CN1CCN(C(=O)c2ccc(NC(=O)C3CC3)nc2N2CCC(F)(F)C2)C(c2ccccc2)C1` (single isomer, unassigned) [Example 148a, (2R or 2S) N-[6-(3,3-difluoropyrrolidin-1-yl)-5-(4-methyl-2-phenylpiperazine-1-carbonyl)pyridin-2-yl]cyclopropanecarboxamide]: the pKi is 6.60 to 7.20.

For the molecule `O=C(Nc1ccc(C(=O)N2CCS(=O)(=O)CC2)c(N2CCCC3(CC3)C2)c1)C1CC1` [Example 189, N-[3-(5-azaspiro[2.5]octan-5-yl)-4-(1,1-dioxo-1,4-thiazinane-4-carbonyl)phenyl]cyclopropanecarboxamide], the pKi was 6.60 to 7.20.

For `CN1CCN(C(=O)c2ccc(NC(=O)C3CC3)nc2N2CCCCC2)C(c2ccccc2)C1` (racemic) [Example 147, N-[5-(4-methyl-2-phenylpiperazine-1-carbonyl)-6-piperidin-1-ylpyridin-2-yl]cyclopropanecarboxamide], the pKi is 6.60 to 7.20.

Regarding `Cc1nnc(-c2ccc(C(=O)N3CCC(F)(F)CC3)c(-n3ccc(C4CC4)n3)c2)[nH]1` [Example 209, [2-(3-cyclopropylpyrazol-1-yl)-4-(5-methyl-4H-1,2,4-triazol-3-yl)phenyl]-(4,4-difluoropiperidin-1-yl)methanone], the pKi was no less than 7.30.

Consider `CN1CCN(C(=O)c2ccc(NC(=O)C3CC3)cc2N2CC3(COC3)C2)C(c2ccccc2)C1` (stereo not drawn) [Example 204, N-[4-(4-methyl-2-phenylpiperazine-1-carbonyl)-3-(2-oxa-6-azaspiro[3.3]heptan-6-yl)phenyl]cyclopropanecarboxamide], for which the pKi was 6.00 to 6.50.

Turning to `O=C(Nc1ccc(C(=O)N2CCN(c3ccccc3)CC2)c(N2CCCCCC2)c1)C1CC1` [Example 52, N-(3-(azepan-1-yl)-4-(4-phenylpiperazine-1-carbonyl)phenyl)cyclopropanecarboxamide], the pKi is 6.60 to 7.20.

Turning to `CN1CCN(C(=O)c2ccc(NC(=O)C3CC3)cc2N2CCCCCC2)C(c2cccs2)C1` (single isomer, unassigned) [Example 69a, N-(3-(azepan-1-yl)-4-(4-methyl-2-(thiophen-2-yl)piperazine-1-carbonyl)phenyl) cyclopropane carboxamide], the pKi is 5.20 to 5.90.

Regarding `CN1CCN(C(=O)c2ccc(NC(=O)C3CC3)cc2N2CCC(C(F)(F)F)C2)C(c2ccccc2)C1` (single isomer, unassigned) [Example 199e, (2S, 3R) or (2R, 3S) or (2R, 3R) or (2S, 3S) N-[4-(4-methyl-2-phenylpiperazine-1-carbonyl)-3-[3-(trifluoromethyl)pyrrolidin-1-yl]phenyl]cyclopropanecarboxamide hydrochloride], the pKi is no less than 7.30.

For the molecule `Cc1noc(C)c1CN1CCN(C(=O)c2ccc(NC(=O)C3CC3)cc2N2CCCCCC2)C(c2ccccc2)C1` (stereo not drawn) [Example 81, N-[3-(azepan-1-yl)-4-[4-[(3,5-dimethyl-1,2-oxazol-4-yl)methyl]-2-phenylpiperazine-1-carbonyl]phenyl]cyclopropanecarboxamide], the pKi was 6.00 to 6.50.

Regarding `O=C(Nc1ccc(C(=O)N2CCn3c(nnc3C(F)(F)F)C2)c(N2CCCCCC2)c1)C1CC1` [Example 41], the pKi was 5.20 to 5.90.

As for `O=C(Nc1ccc(C(=O)N2CCSCC2c2ccccc2)c(N2CCCC2)c1)C1CC1` (stereo not drawn) [Example 58, N-[4-(3-phenylthiomorpholine-4-carbonyl)-3-pyrrolidin-1-ylphenyl]cyclopropanecarboxamide], the pKi was 6.60 to 7.20.
